Reference: the supplement of paper PMC10307832

Key:
Experiment in all cases: relative viability (nuclei count vs DMSO), 5 days (fraction); higher = more cells survive
Bortezomib + OSI-027 = compound: CC(C)C[C@H](NC(=O)[C@H](Cc1ccccc1)NC(=O)c1cnccn1)B(O)O [Bortezomib] + COc1cccc2cc(-c3nc([C@H]4CC[C@H](C(=O)O)CC4)n4ncnc(N)c34)[nH]c12 [OSI-027] (partner 0.5 µM)
Outline: (§1)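 Lung cancer cell lines in 1536-well plates were dosed by pin tool the day after seeding, either with one drug alone or with a fixed anchor-drug dose plus five library-drug doses (not always all listed) in √10 steps. After 5 days, cells were fixed and their nuclei stained in one step (final 0.05% Triton X-100, 1% formaldehyde, 1 ug/ml Hoechst), then counted on 4× images. Relative viability is the nuclei count in treated wells divided by that in vehicle wells. Values are medians of duplicate plates.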

[1] = compound: CC1=CC(=NN1)NC2=CC(=NC(=N2)/C=C/C3=CC=CC=C3)N4CCN(CC4)C + CS(=O)(=O)N1CCN(Cc2cc3nc(-c4cccc5[nH]ncc45)nc(N4CCOCC4)c3s2)CC1 [Pictilisib] (partner 1 µM)
Outline: as §1

[2] = compound: CC1=CC(=NN1)NC2=CC(=NC(=N2)/C=C/C3=CC=CC=C3)N4CCN(CC4)C + C[C@]1(O)C[C@@H](c2nc(-c3ccc4ccc(-c5ccccc5)nc4c3)c3c(N)nccn32)C1 [Linsitinib] (partner 1 µM)
Outline: as §1

Bortezomib + AZD7762 = compound: CC(C)C[C@H](NC(=O)[C@H](Cc1ccccc1)NC(=O)c1cnccn1)B(O)O [Bortezomib] + NC(=O)Nc1cc(-c2cccc(F)c2)sc1C(=O)N[C@H]1CCCNC1 [AZD7762] (partner 0.2 µM)
Outline: as §1

| Cell Line | relative viability (Bortezomib + OSI-027; first compound 0.0002 µM) | relative viability (Bortezomib + OSI-027; first compound 0.000632 µM) | relative viability (Bortezomib + OSI-027; first compound 0.002 µM) | relative viability (Bortezomib + OSI-027; first compound 0.006325 µM) | relative viability (Bortezomib + OSI-027; first compound 0.02 µM) | relative viability ([1]; first compound 0.08 µM) | relative viability ([1]; first compound 0.253 µM) | relative viability ([1]; first compound 0.8 µM) | relative viability ([1]; first compound 2.53 µM) | relative viability ([1]; first compound 8 µM) | relative viability ([2]; first compound 0.08 µM) | relative viability ([2]; first compound 0.253 µM) | relative viability ([2]; first compound 0.8 µM) | relative viability ([2]; first compound 2.53 µM) | relative viability ([2]; first compound 8 µM) | relative viability (Bortezomib + AZD7762; first compound 0.0002 µM) | relative viability (Bortezomib + AZD7762; first compound 0.000632 µM) | relative viability (Bortezomib + AZD7762; first compound 0.002 µM) | relative viability (Bortezomib + AZD7762; first compound 0.006325 µM) | relative viability (Bortezomib + AZD7762; first compound 0.02 µM) |
| --- | --- | --- | --- | --- | --- | --- | --- | --- | --- | --- | --- | --- | --- | --- | --- | --- | --- | --- | --- | --- |
| NCI-H2023 | 0.464 | 0.373 | 0.43 | 0.0814 | 0.0616 | 0.203 | 0.266 | 0.197 | 0.0664 | 0.0528 | 0.63 | 0.725 | 0.581 | 0.382 | 0.0796 |  |  |  |  |  |
| EBC-1 |  |  |  |  |  | 0.394 | 0.451 | 0.392 | 0.143 | 0.0897 | 0.852 | 0.874 | 0.923 | 0.71 | 0.317 |  |  |  |  |  |
| NCI-H1666 | 0.802 | 0.869 | 0.945 | 0.43 | 0.324 | 0.494 | 0.389 | 0.358 | 0.325 | 0.176 | 0.83 | 0.949 | 0.747 | 0.77 | 0.288 | 0.849 | 0.935 | 0.817 | 0.592 | 0.333 |
| NCI-H1975 | 0.674 | 0.624 | 0.196 | 0.111 | 0.106 | 0.284 | 0.307 | 0.25 | 0.128 | 0.0893 | 0.904 | 0.951 | 0.722 | 0.203 | 0.127 | 0.727 | 0.652 | 0.319 | 0.172 | 0.194 |
| NCI-H1793 | 0.278 | 0.213 | 0.272 | 0.223 | 0.145 | 0.229 | 0.235 | 0.306 | 0.293 | 0.116 | 0.904 | 1.32 | 0.828 | 0.432 | 0.108 | 0.512 |  | 0.394 | 0.803 | 0.0834 |
| NCI-H1355 | 0.386 | 0.356 | 0.44 | 0.22 | 0.163 | 0.412 | 0.36 | 0.395 | 0.263 | 0.118 | 0.797 | 0.843 | 0.779 | 0.62 | 0.41 | 0.794 | 0.721 | 0.922 | 0.293 | 0.133 |
| SW 900 | 0.527 | 0.414 | 0.143 | 0.0928 | 0.108 |  |  |  |  |  |  |  |  |  |  | 0.572 | 0.627 | 0.188 | 0.178 | 0.158 |
| A549 |  |  |  |  |  | 0.464 | 0.592 | 0.332 | 0.0385 | 0.0281 | 0.538 | 0.689 | 0.481 | 0.275 | 0.0279 |  |  |  |  |  |
| NCI-H2170 | 0.688 | 0.463 | 0.69 | 0.566 | 0.182 | 0.283 | 0.301 | 0.257 | 0.166 | 0.136 |  |  |  |  |  | 0.804 | 0.685 | 0.943 | 0.54 | 0.113 |
| EKVX | 0.725 | 0.672 | 0.79 | 0.605 | 0.109 | 0.438 | 0.478 | 0.488 | 0.31 | 0.115 | 1.02 | 1.13 | 1.1 | 0.788 | 0.144 | 0.72 | 0.741 | 0.845 | 0.286 | 0.0785 |
| RERF-LC-KJ | 0.581 | 0.547 | 0.555 | 0.216 | 0.24 | 0.593 | 0.519 | 0.495 | 0.27 | 0.168 | 0.817 | 0.863 | 0.792 | 0.604 | 0.216 | 0.819 | 1.12 | 1.12 | 0.966 | 0.409 |
| NCI-H1755 | 0.706 | 0.568 | 0.68 | 0.27 | 0.228 | 0.418 | 0.351 | 0.419 | 0.195 | 0.0971 | 1.05 | 1.04 | 0.993 | 0.799 | 0.267 | 0.442 | 0.425 | 0.508 | 0.287 | 0.2 |
| NCI-H661 | 0.659 | 0.658 | 0.688 | 0.33 | 0.183 |  | 0.408 | 0.346 | 0.259 | 0.205 | 0.618 | 0.579 | 0.663 | 0.44 | 0.182 |  |  |  |  |  |
| LOU-NH91 | 0.688 | 0.68 | 0.581 | 0.298 | 0.251 | 0.461 | 0.544 | 0.513 | 0.454 | 0.314 | 0.953 | 1.01 | 0.98 | 0.775 | 0.501 | 0.729 | 0.68 | 0.361 | 0.348 | 0.339 |
| LXF-289 | 0.773 | 0.754 | 0.803 | 0.0966 | 0.0619 | 0.802 | 0.783 | 0.74 | 0.442 | 0.277 | 0.932 | 1.01 | 0.914 | 0.447 | 0.36 | 1.12 | 1.03 | 1.19 | 0.11 | 0.0936 |
| HCC-44 | 0.462 | 0.523 | 0.472 | 0.252 | 0.197 | 0.606 | 0.627 | 0.447 | 0.34 | 0.245 | 0.64 | 0.755 | 0.659 | 0.235 | 0.201 | 0.959 | 0.985 | 1.01 | 1.04 | 0.239 |
| HARA | 0.439 | 0.322 | 0.616 | 0.0379 | 0.0617 | 0.396 | 0.37 | 0.348 | 0.204 | 0.0756 | 1.07 | 0.899 | 1.03 | 0.139 | 0.0705 | 0.257 | 0.311 | 0.577 | 0.178 | 0.0909 |
| 201T | 0.694 | 0.75 | 0.753 | 0.551 | 0.138 | 0.668 | 0.683 | 0.67 | 0.643 | 0.607 | 1.02 | 1.07 | 1 | 0.897 | 0.819 | 0.602 | 0.684 | 0.59 | 0.661 | 0.38 |
